From patent US20230234943A1, “TREX1 INHIBITORS AND USES THEREOF” (Tempest Therapeutics, Inc., priority 2020, published 2023)
pIC50: −log10 of the molar value.

Target: T1, Human TREX1 enzyme (amino acids 1-242) (Homo sapiens, UniProt Q9NSU2)
T1 construct: Human TREX1 enzyme (amino acids 1-242)
T1 sequence (Q9NSU2 1-242): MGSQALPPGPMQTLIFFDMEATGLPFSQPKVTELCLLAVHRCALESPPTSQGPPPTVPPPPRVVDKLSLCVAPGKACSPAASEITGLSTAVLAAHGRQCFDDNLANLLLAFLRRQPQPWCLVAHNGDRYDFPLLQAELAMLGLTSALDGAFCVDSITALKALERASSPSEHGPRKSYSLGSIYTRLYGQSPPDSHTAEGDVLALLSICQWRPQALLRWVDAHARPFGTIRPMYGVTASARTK
Experiment: Human TREX1 enzymatic assay with dsDNA native oligonucleotide (Picogreen fluorescence)
Assay type: biochemical
Conditions: 2 mM dithiothreitol in assay buffer; 50 nM dsDNA oligonucleotide; 30 min preincubation at 25° C.; read-out: TREX1/Human + DTT IC50 AVG
Procedure, shortened: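 Remaining dsDNA quantified by Picogreen fluorescence after EDTA quench, with no-enzyme and DMSO wells as controls. Reactions used 50 nM annealed oligonucleotide for 5–15 min at 25 °C, after a 30 min compound–enzyme preincubation (0.8–0.16 nM TREX1; 2% DMSO; pH 7.7 Tris, 5 mM MgCl2).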

Row | pIC50 | SMILES
1 | 4.00 to 5.00 | COc1cc(-c2nc3ccccc3n2C2CCOC2)cc(O)c1O (centres unmarked) [Example 13, 3-methoxy-5-(1-(tetrahydrofuran-3-yl)-1H-benzo[d]imidazol-2-yl)benzene-1,2-diol]
2 | 4.00 to 5.00 | COc1cc(-c2nc3c(N4CCOCC4)cncc3[nH]2)cc(O)c1O [Example 76, 3-methoxy-5-(7-morpholino-3H-imidazo[4,5-c]pyridin-2-yl)benzene-1,2-diol]
3 | < 4.00 | COc1cc(-c2nc3cc(N(C)C)ccc3[nH]2)cc(O)c1O [Example 92, 5-(5-(dimethylamino)-1H-benzo[d]imidazol-2-yl)-3-methoxybenzene-1,2-diol]
4 | 4.00 to 5.00 | COc1cc(-c2nc3cc(N4CCOCC4)ccc3s2)cc(O)c1O [Example 156, 3-methoxy-5-(5-morpholinobenzo[d]thiazol-2-yl)benzene-1,2-diol]
5 | 4.00 to 5.00 | COc1cc(-c2nc3ccc(N4CCOCC4)cc3n2C2CCOC2)cc(O)c1O (centres unmarked) [Example 83, 3-methoxy-5-(6-morpholino-1-(tetrahydrofuran-3-yl)-1H-benzo[d]imidazol-2-yl)benzene-1,2-diol]
6 | 4.00 to 5.00 | COc1cc(-c2nc3ccccc3n2C2(C)COC2)c(OC(F)F)c(O)c1O [Example 217, 3-(difluoromethoxy)-6-methoxy-4-(1-(3-methyloxetan-3-yl)-1H-benzo[d]imidazol-2-yl)benzene-1,2-diol]
7 | < 4.00 | COc1cc(-c2nc3cc(N4CCN(C(=O)c5ccc6ccccc6c5)CC4)ccc3[nH]2)cc(O)c1O [Example 81, (4-(2-(3,4-dihydroxy-5-methoxyphenyl)-1H-benzo[d]imidazol-5-yl)piperazin-1-yl)(naphthalen-2-yl)methanone]
8 | 5.00 to 6.00 | COc1cc(-c2nc3cc(N4CCC4)ccc3[nH]2)c(C)c(O)c1O [Example 189, 4-(5-(azetidin-1-yl)-1H-benzo[d]imidazol-2-yl)-6-methoxy-3-methylbenzene-1,2-diol]
9 | ≥ 7.00 | COc1cc(-c2nc3ccc(-c4cn[nH]c4)cc3n2C2(C)COC2)c(F)c(O)c1O [Example 194]
10 | 5.00 to 6.00 | COc1cc(-c2nc3ccc(N4CCOCC4=O)cc3n2C2(C)COC2)c(F)c(O)c1O [Example 277, 4-(2-(2-fluoro-3,4-dihydroxy-5-methoxyphenyl)-1-(3-methyloxetan-3-yl)-1H-benzo[d]imidazol-6-yl)morpholin-3-one]
11 | ≥ 7.00 | COc1cc(-c2nc3ccc(-n4cccn4)cc3n2C2(C)COC2)c(F)c(O)c1O [Example 184, 3-fluoro-6-methoxy-4-[1-(3-methyloxetan-3-yl)-6-(1H-pyrazol-1-yl)-1H-1,3-benzodiazol-2-yl]benzene-1,2-diol]
12 | ≥ 7.00 | COc1cc(-c2nc3ccc(C(=O)NC4CNC4)cc3n2C2(C)COC2)c(F)c(O)c1O [Example 259, N-(azetidin-3-yl)-2-(2-fluoro-3,4-dihydroxy-5-methoxyphenyl)-1-(3-methyloxetan-3-yl)-1H-1,3-benzodiazole-6-carboxamide]
13 | 6.00 to 7.00 | COc1cc(-c2nc3ccccc3n2C(C)(C)C)c(F)c(O)c1O [Example 330, 4-(1-(tert-butyl)-1H-benzo[d]imidazol-2-yl)-3-fluoro-6-methoxybenzene-1,2-diol]
14 | 4.00 to 5.00 | CNS(=O)(=O)c1ccc2nc(-c3cc(OC)c(O)c(O)c3F)n(C3(C)COC3)c2c1 [Example 325, 2-(2-fluoro-3,4-dihydroxy-5-methoxyphenyl)-N-methyl-1-(3-methyloxetan-3-yl)-1H-benzo[d]imidazole-6-sulfonamide]
15 | 4.00 to 5.00 | COc1cc(-c2nc3cc(N4CCC4)ccc3n2C2CCOC2)cc(C(=O)O)c1O (centres unmarked) [Example 28, 5-(5-(azetidin-1-yl)-1-(tetrahydrofuran-3-yl)-1H-benzo[d]imidazol-2-yl)-2-hydroxy-3-methoxybenzoic acid]
16 | 4.00 to 5.00 | COc1cc(-c2nc3ccc(N4CCOCC4)cc3n2C)cc(O)c1O [Example 63, 3-methoxy-5-(1-methyl-6-morpholino-1H-benzo[d]imidazol-2-yl)benzene-1,2-diol]

Further lines, the compound ahead of its results:

Row | SMILES | pIC50
17 | COc1cc(-c2nc3cc(NC(=O)c4cnoc4)ccc3n2C2(C)COC2)c(F)c(O)c1O [Example 206, N-(2-(2-fluoro-3,4-dihydroxy-5-methoxyphenyl)-1-(3-methyloxetan-3-yl)-1H-benzo[d]imidazol-5-yl)isoxazole-4-carboxamide] | 6.00 to 7.00
18 | COc1cc(-c2nc3cc(N4CC(C)C4)ccc3[nH]2)cc(O)c1O [Example 143, 3-methoxy-5-(5-(3-methylazetidin-1-yl)-1H-benzo[d]imidazol-2-yl)benzene-1,2-diol] | < 4.00
19 | COc1cc(-c2nc3cc(N4CC5(CNC5)C4)ccc3[nH]2)cc(O)c1O [Example 142, 5-(5-(2,6-diazaspiro[3.3]heptan-2-yl)-1H-benzo[d]imidazol-2-yl)-3-methoxybenzene-1,2-diol] | < 4.00
20 | COc1cc(-c2nc3cc(NCCO)ccc3[nH]2)cc(O)c1O [Example 319, 5-(5-((2-hydroxyethyl)amino)-1H-benzo[d]imidazol-2-yl)-3-methoxybenzene-1,2-diol] | 5.00 to 6.00
21 | COc1cc(-c2nc3cc(N4CCN(S(=O)(=O)c5ccccc5)CC4)ccc3[nH]2)cc(O)c1O [Example 87, 3-methoxy-5-(5-(4-(phenylsulfonyl)piperazin-1-yl)-1H-benzo[d]imidazol-2-yl)benzene-1,2-diol] | < 4.00
22 | COc1cc(-c2nc3ccccc3n2C(C)C)c(C)c(O)c1O [Example 226, 4-(1-isopropyl-1H-benzo[d]imidazol-2-yl)-6-methoxy-3-methylbenzene-1,2-diol] | 5.00 to 6.00
23 | COc1cc(-c2nc3ccccc3n2-c2ccccc2)c(F)c(O)c1O [Example 331, 3-fluoro-6-methoxy-4-(l-phenyl-1H-1,3-benzodiazol-2-yl)benzene-1,2-diol] | 5.00 to 6.00
24 | COc1cc(-c2nc3cc(N4CCN(Cc5ccccc5)CC4)ccc3[nH]2)cc(O)c1O [Example 59, 5-(5-(4-benzylpiperazin-1-yl)-1H-benzo[d]imidazol-2-yl)-3-methoxybenzene-1,2-diol] | 4.00 to 5.00
25 | COc1cc(-c2nc3cc(N4CCN(C(=O)c5ccccc5)CC4)ccc3[nH]2)c(F)c(O)c1O [Example 159, (4-(2-(2-fluoro-3,4-dihydroxy-5-methoxyphenyl)-1H-benzo[d]imidazol-5-yl)piperazin-1-yl)(phenyl)methanone] | 5.00 to 6.00
26 | COc1cc(-c2nc3c(C)cccc3[nH]2)cc(O)c1O [Example 21, 3-methoxy-5-(4-methyl-1H-benzo[d]imidazol-2-yl)benzene-1,2-diol] | < 4.00
27 | COc1cc(-c2nc3ccc(-c4cnn(C)c4)cc3n2C2(C)COC2)c(F)c(O)c1O [Example 265, 3-fluoro-6-methoxy-4-(6-(1-methyl-1H-pyrazol-4-yl)-1-(3-methyloxetan-3-yl)-1H-benzo[d]imidazol-2-yl)benzene-1,2-diol] | ≥ 7.00
28 | COc1cc(-c2nc3cc(N4CCN(C(=O)c5ccc(C)cc5C)CC4)ccc3[nH]2)cc(O)c1O [Example 100, (4-(2-(3,4-dihydroxy-5-methoxyphenyl)-1H-benzo[d]imidazol-5-yl)piperazin-1-yl)(2,4-dimethylphenyl)methanone] | < 4.00
29 | CNC(=O)c1ccc2c(c1)nc(-c1cc(OC)c(O)c(O)c1F)n2C1(C)COC1 [Example 308, 2-(2-fluoro-3,4-dihydroxy-5-methoxyphenyl)-N-methyl-1-(3-methyloxetan-3-yl)-1H-benzo[d]imidazole-5-carboxamide] | 6.00 to 7.00
